The text below walks through data of patent publication US6897237B2, “MMP-12 inhibitors” (Shionogi & Co. Ltd., priority 2000, dated 2005).

A value given as a limit tells only on which side of the number the result lay.

What all share (type): biochemical
Holding throughout (details): substrate MOCAc-Pro-Leu-Gly-Leu-A2Pr(DNP)-Ala-Arg-NH2

The target in experiment [1] is T1, MMP-12 catalytic domain (Homo sapiens, UniProt P39900).
T1 construct: catalytic domain(^100Phe˜^263Gly); His-tag; enterokinase digestion-site; made in house; host or cells: Escherichia coli
T1 sequence (P39900 100-263): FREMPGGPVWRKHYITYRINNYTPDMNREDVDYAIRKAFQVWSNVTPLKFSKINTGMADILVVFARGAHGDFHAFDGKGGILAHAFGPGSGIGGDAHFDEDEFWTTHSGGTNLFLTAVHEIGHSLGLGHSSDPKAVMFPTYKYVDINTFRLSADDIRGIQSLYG
Put plainly: Assay for inhibitory activities on MMPs (fluorogenic peptide substrate): MMP-12. The protocol:
(§1) In regard to MMP-12, catalytic domain(^100Phe˜^263Gly) was amplified with RT-PCR from Human Placenta Total RNA. This was cloned in Escherichia coli expression vector pTrc99AHE inserted with His-tag sequence and enterokinase digestion-site, induced and expressed by IPTG (Isopropyl-β-D-thiogalactopyranoside) and expressed in a insoluble fraction. Isolation of MMP-12 from a insoluble fraction was carried out by dissolving in modifier (6M urea) by a usual method and purification with metal chelate chromatography (Ni Chelateing Sepharose). And then removing modifier (6M urea) with dialysis and refolding of the enzyme spontaneously gave activated MMP-12.
(§2) The enzymatic activity on MMPs was analyzed by the method described in “C. Graham Knight, Frances Willenbrock and Gillian Murphy: A novel coumarin-labelled peptide for sensitive continuous assays of the matrix metalloproteinases: FEBS LETT., 296, (1992), 263-266”. The substrate: MOCAc-Pro-Leu-Gly-Leu-A2Pr(DNP)-Ala-Arg-NH2 was purchased from Peptide Institute, Inc., Osaka, Japan. The measurement of the inhibitory activities (IC50) was carried out by the following four methods;
(§3) (A) Reaction with substrate, enzyme (MMPs) and inhibitor
(§4) (B) Reaction with substrate and inhibitor, without enzyme
(§5) (C) Reaction with substrate and enzyme (MMPs), without inhibitor
(§6) (D) Reaction with substrate only
(§7) IC50 values were calculated by using the following formula and each fluorescence values of above four methods (A to D).
(§8) % inhibition={1−(A−B)/(C−D)}×100
(§9) IC50 means the concentration required to inhibit 50% of the enzyme activity.

The target in experiment [2] is T2, MMP-2 (Homo sapiens, UniProt P08253).
T2 construct: purchased Calbiochem-Novabiochem International, Inc
T2 sequence (P08253 110-660): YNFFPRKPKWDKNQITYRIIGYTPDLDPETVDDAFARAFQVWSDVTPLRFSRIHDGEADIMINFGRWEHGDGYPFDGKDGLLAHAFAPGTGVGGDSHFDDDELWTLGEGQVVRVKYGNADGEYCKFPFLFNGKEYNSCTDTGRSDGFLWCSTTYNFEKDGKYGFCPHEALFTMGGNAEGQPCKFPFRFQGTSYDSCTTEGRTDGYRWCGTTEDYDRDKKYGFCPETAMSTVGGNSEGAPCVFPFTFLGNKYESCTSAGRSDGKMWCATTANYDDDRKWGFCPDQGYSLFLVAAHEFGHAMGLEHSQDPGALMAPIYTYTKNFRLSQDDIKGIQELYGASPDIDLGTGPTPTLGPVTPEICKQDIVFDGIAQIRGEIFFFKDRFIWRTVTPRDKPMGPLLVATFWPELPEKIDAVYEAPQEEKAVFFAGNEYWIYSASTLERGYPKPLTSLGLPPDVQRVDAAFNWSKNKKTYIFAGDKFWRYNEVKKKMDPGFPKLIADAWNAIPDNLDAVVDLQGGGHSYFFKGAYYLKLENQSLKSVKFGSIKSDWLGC
Briefly: Assay for inhibitory activities on MMPs (fluorogenic peptide substrate): MMP-2. The protocol:
MMP-2 was purchased from Calbiochem-Novabiochem International, Inc.
as §2, §3, §4, §5, §6, §7, §8, §9

Experiment [3] deals with T3, MMP-8 catalytic domain (Homo sapiens, UniProt P22894).
T3 construct: catalytic domain (^99Phe˜^262Gly); His-tag; enterokinase digestion-site; made in house; host or cells: Escherichia coli
T3 sequence (P22894 99-262): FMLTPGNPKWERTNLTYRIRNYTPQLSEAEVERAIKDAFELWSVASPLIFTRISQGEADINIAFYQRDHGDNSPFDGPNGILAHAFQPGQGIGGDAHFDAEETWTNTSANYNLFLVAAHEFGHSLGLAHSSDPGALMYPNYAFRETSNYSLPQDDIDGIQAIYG
Briefly: Assay for inhibitory activities on MMPs (fluorogenic peptide substrate): MMP-8.
Excerpt: In regard to MMP-8, catalytic domain (^99Phe˜^262Gly) was amplified with PCR using commercial available Human Bone Marrow cDNA. This was cloned in Escherichia. coli expression vector pTrc99AHE inserted with His-tag sequence and enterokinase digestion-site, induced and expressed by IPTG (Isopropyl-β-D-thiogalactopyranoside) and expressed in a insoluble fraction (Than F. Ho, M. Walid Qoronfleh, Robert C. Wahl, Trica A. Pulvino, Karen J. Vavra, Joe Falvo, Tracey M. Banks, Patricia G. Brake and Richard B. Ciccarelli: Gene expression, purification and characterization of recombinant human neutrophil collagenase. Gene 146, (1994) 297-301, Prepared by the a improved method of this material). Isolation of MMP-8 from insoluble fraction was carried out by dissolving in modifier (6M urea) by a usual method and purification with metal chelate chromatography. And then removing modifier (6M urea) with dialysis and refolding of the enzyme spontaneously gave activated MMP-8.
as §2, §3, §4, §5, §6, §7, §8, §9

The target of experiment [4] is T4, MMP-1 (Homo sapiens, UniProt P03956).
T4 construct: purchased Yagai
T4 sequence (P03956 100-469): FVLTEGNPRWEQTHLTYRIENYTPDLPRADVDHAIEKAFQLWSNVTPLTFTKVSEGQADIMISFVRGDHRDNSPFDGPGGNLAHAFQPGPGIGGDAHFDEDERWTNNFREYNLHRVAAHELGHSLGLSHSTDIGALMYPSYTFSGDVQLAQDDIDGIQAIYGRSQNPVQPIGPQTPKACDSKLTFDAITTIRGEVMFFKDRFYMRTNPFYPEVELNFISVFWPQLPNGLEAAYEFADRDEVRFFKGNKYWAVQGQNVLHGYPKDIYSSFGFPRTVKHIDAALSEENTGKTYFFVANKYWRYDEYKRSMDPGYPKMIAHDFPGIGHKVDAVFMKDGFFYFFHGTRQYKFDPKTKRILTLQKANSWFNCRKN
Put plainly: Assay for inhibitory activities on MMPs (fluorogenic peptide substrate): MMP-1. As to the method: MMP-1 was purchased from Yagai.
as §2, §3, §4, §5, §6, §7, §8, §9

The target in experiment [5] is T5, MMP-9 (Homo sapiens, UniProt P14780).
T5 construct: endogenous in cells; host or cells: HT1080 human fibrosarcoma cells, TPA-stimulated; purified in house from conditioned medium
T5 sequence (P14780 107-707 limits assumed): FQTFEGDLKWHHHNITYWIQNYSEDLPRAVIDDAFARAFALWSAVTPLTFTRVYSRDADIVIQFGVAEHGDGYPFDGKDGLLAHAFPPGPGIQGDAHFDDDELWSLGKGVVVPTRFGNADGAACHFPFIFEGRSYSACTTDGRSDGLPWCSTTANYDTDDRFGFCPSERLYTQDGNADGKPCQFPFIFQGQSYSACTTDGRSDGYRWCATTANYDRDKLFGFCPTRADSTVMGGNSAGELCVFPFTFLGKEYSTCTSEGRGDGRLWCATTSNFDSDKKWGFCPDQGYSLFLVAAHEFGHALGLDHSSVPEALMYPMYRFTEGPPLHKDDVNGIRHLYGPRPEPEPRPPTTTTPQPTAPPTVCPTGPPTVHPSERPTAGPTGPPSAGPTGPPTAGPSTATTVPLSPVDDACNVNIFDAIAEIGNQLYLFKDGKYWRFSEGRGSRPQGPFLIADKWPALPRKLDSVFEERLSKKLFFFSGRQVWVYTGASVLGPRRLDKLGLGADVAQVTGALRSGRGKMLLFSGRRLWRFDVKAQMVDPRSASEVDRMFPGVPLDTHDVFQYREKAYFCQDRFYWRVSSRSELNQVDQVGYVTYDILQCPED
Put plainly: Assay for inhibitory activities on MMPs (fluorogenic peptide substrate): MMP-9.
Excerpt: MMP-9 was isolated and purified by using a combination of procedures described in previous reports as follows. Yasunori Okada, Yukio Gonoji, Katsumi Naka, Katsuro Tomita, Isao Nakanishi, Kazushi Iwata, Kyoko Yamashita, and Taro Hayakawa: Matrix metalloproteinase 9 (92-kDa gelatinase/type IV collagenase) from HT1080 human fibrosarcoma cells. Purification and activation of the precursor and enzymic properties. J. Biol. Chem., 267 (1.992) 21712-21719. Yasunori Okada, Tatsuhisa Morodomi, Jan J, Enghild, Ko Suzuki, Atsushi Yasui, Isao Nakanishi, Guy Salvesen and Hideaki Nagase: Matrix metalloproteinase 2 from human rheumatoid synovial fibroblasts. Purification and activation of the precursor and enzymic properties. Eur. J. Biochem. 194 (1990) 721-730. Robin V Ward, Rosalind M Hembry, John J Reynolds and Gillian Murphy: The purification of tissue inhibitor of metalloproteinase-2 from its 72 kDa progelatinase complex. Biochem. J. 278 (1991) 179-187.
Briefly, human fibrosarcoma ATCC HT1080 cell line was cultured to confluent in Dulbecco's Modified Medium (DMEM) containing 10% fetal-calf serum at 37° C. for 48 hours. Subsequently, the medium of confluent culture was changed to serum-free DMEM medium. To obtain MMP-9, Phorbol-12-myristate-13-acetate (TPA) must be added to this serum-free DMEM medium at a concentration of 50 ng/ml. The TPA treated medium was centrifuged at 3000 rpm for 15 min and the supernatant was concentrated to 450 ml by a Toyo-Roshi UP-20 apparatus with an ultrafiltration membrane. Then, proMMP-9 in this concentrated solution was purified by using columns of Gelatin-Sepharose and Concanavalin A-Sepharose. The pool containing proMMP-9 was dialyzed, concentrated (Toyo-Roshi UP-20) and applied to columns of Sephacryl S-200 and Green A matrix for the separation from TIMPs. The obtained proMMP-9 fraction was activated by TPCK-Trypsin (final conc. […] reaction mix.).
as §2, §3, §4, §5, §6, §7, §8, §9

The target in experiment [6] is T6, MMP-13 catalytic domain (Homo sapiens, UniProt P45452).
T6 construct: catalytic domain (^104Tyr˜^267Gly); His-tag; enterokinase digestion-site; made in house; host or cells: Escherichia coli
Briefly: Assay for inhibitory activities on MMPs (fluorogenic peptide substrate): MMP-13. As to the method:
as §1, with “MMP-13, mRNA was prepared from carcinoma cell SW1353 derived from human cartilage stimulate by IL-1, TNF and” for “MMP-12,”, “domain (^104Tyr˜^267Gly)” for “domain(^100Phe˜^263Gly)”, “RT-PCR.” for “RT-PCR from Human Placenta Total RNA.”, “MMP-1.3” for “MMP-12”, “dialyze” for “dialysis”, “MMP-13.” for “MMP-12.”
as §2, §3, §4, §5, §6, §7, §8, §9

For the compound `O=C(O)[C@@H](Cc1ccccc1)NS(=O)(=O)c1ccc(C#Cc2ccc3ccccc3c2)cc1` [Compound A-2], the IC50 (usually the concentration that gives 50% inhibition) in experiment [1] was 16 nM; in experiment [2], over 10000 nM; in experiment [3], over 10000 nM; in experiment [4], over 10000 nM; in experiment [5], over 10000 nM; in experiment [6], over 10000 nM.

As to `O=C(O)[C@H](Cc1ccccc1)NS(=O)(=O)c1ccc(C#Cc2ccc3ccccc3c2)cc1` [Compound A-3], the 50% inhibitory concentration (IC50) is 21 nM in experiment [1]; over 10000 nM in experiment [2]; over 10000 nM in experiment [3]; over 10000 nM in experiment [4]; over 10000 nM in experiment [5]; over 10000 nM in experiment [6].

With `CC(C)[C@@H](NS(=O)(=O)c1ccc(C#Cc2ccc3ccccc3c2)cc1)C(=O)O` [Compound A-5], the concentration for half-maximal inhibition (IC50) is 14 nM in experiment [1]; 110 nM in experiment [2]; 1060 nM in experiment [3]; over 10000 nM in experiment [4]; 330 nM in experiment [5]; 340 nM in experiment [6].

In experiment [4], `CC(C)[C@H](NS(=O)(=O)c1ccc(C#Cc2ccc3ccccc3c2)cc1)C(=O)O` [Compound A-6] returned an IC50 of over 10000 nM.

In the case of `C[C@H](NS(=O)(=O)c1ccc(C#Cc2ccc3ccccc3c2)cc1)C(=O)O` [Compound A-8], the half-maximal inhibitory concentration (IC50) in experiment [1] was 16 nM; in experiment [2], 570 nM; in experiment [3], 2440 nM; in experiment [4] it was over 10000 nM; in experiment [5], 3280 nM; in experiment [6] it was 2770 nM.

On to `O=C(O)CNS(=O)(=O)c1ccc(C#Cc2ccc3ccccc3c2)cc1` [Compound A-9], for which the IC50 was 69 nM in experiment [1]; 250 nM in experiment [2]; over 10000 nM in experiment [3]; over 10000 nM in experiment [4]; 1800 nM in experiment [5]; 2880 nM in experiment [6].

`CC(C)C[C@@H](NS(=O)(=O)c1ccc(C#Cc2ccc3ccccc3c2)cc1)C(=O)O` [Compound A-10]: the IC50 in experiment [1] is 58 nM; in experiment [2] it was 370 nM; in experiment [3] it was 4380 nM; in experiment [4], over 10000 nM; in experiment [5], 1440 nM; in experiment [6] it was 1550 nM.

With `CC(C)C[C@H](NS(=O)(=O)c1ccc(C#Cc2ccc3ccccc3c2)cc1)C(=O)O` [Compound A-11], the concentration for half-maximal inhibition (IC50) was 5.9 nM in experiment [1]; 370 nM in experiment [2]; 580 nM in experiment [3]; over 10000 nM in experiment [4]; 1270 nM in experiment [5]; 460 nM in experiment [6].

With `O=C(O)[C@H](NS(=O)(=O)c1ccc(C#Cc2ccc3ccccc3c2)cc1)c1ccc(O)cc1` [Compound A-12], the half-inhibitory concentration (IC50) is 35 nM in experiment [1]; 370 nM in experiment [2]; 3630 nM in experiment [3]; over 10000 nM in experiment [4]; 1790 nM in experiment [5]; 1140 nM in experiment [6].

Regarding `O=C(O)[C@H](Cc1c[nH]c2ccccc12)NS(=O)(=O)c1ccc(C#Cc2ccc3ccccc3c2)cc1` [Compound A-15], the 50% inhibitory concentration (IC50) in experiment [1] is 32 nM; in experiment [2] it was 460 nM; in experiment [3], over 10000 nM; in experiment [4] it was over 10000 nM; in experiment [5] it was 900 nM; in experiment [6] it was 890 nM.

`O=C(O)[C@H](Cc1ccccc1)NS(=O)(=O)c1ccc(C#Cc2ccc3c(c2)OCO3)cc1` [Compound A-22]: the IC50 in experiment [1] is 7.9 nM; in experiment [2], 13 nM; in experiment [3] it was 10 nM; in experiment [4], over 10000 nM; in experiment [5] it was 300 nM; in experiment [6], 37 nM.

With `O=C(O)[C@@H](Cc1ccccc1)NS(=O)(=O)c1ccc(C#Cc2ccc3ccccc3c2)s1` [Compound B-1], the half-maximal inhibitory concentration (IC50) in experiment [1] was 42 nM; in experiment [2], 820 nM; in experiment [3], over 10000 nM; in experiment [4] it was over 10000 nM; in experiment [5] it was over 10000 nM; in experiment [6] it was over 10000 nM.

As for `O=C(O)[C@H](Cc1ccccc1)NS(=O)(=O)c1ccc(C#Cc2ccc3ccccc3c2)s1` [Compound B-2], the IC50 in experiment [1] is 240 nM; in experiment [2], over 10000 nM; in experiment [3], over 10000 nM; in experiment [4], over 10000 nM; in experiment [5], over 10000 nM; in experiment [6], over 10000 nM.

For `O=C(O)[C@@H](Cc1c[nH]c2ccccc12)NS(=O)(=O)c1ccc(C#Cc2ccc3ccccc3c2)s1` [Compound B-3], the IC50 was 16 nM in experiment [1]; 1400 nM in experiment [3]; over 10000 nM in experiment [4]; 750 nM in experiment [5]; over 10000 nM in experiment [6].
